Assay results reported in patent US20130338106A1, “COMPOUNDS INHIBITING LEUCINE-RICH REPEAT KINASE ENZYME ACTIVITY” (priority 2011, published 2013).

Assays:
Assay type in all cases: biochemical
Details in all cases: tested at 10 uM, read-out: percent inhibition of the kinase activity
[1] = target: T1, SGK3 (Homo sapiens, UniProt Q96BR1); experiment: ProfilerPro Kinase Selectivity, SGK3
T1 construct: purchased Caliper LifeSciences
Description: (§1) Kinome selectivity profiling was performed using two example compounds according to the manufacturer's instructions using Caliper LifeSciences' ProfilerPro Kinase Selectivity Assay Kits. Compounds prepared in Examples 1 and 7 were tested at 10 uM and data were recorded using the Caliper LabChip® EZ Reader™. Each compounds' percent inhibition of the kinase activity measured in this manner is reported in the following lists.

[2] = target: T2, MST2 (Homo sapiens, UniProt Q13188); experiment: ProfilerPro Kinase Selectivity, MST2
T2 construct: purchased Caliper LifeSciences
Description: as §1

[3] = target: T3, AURB (Homo sapiens, UniProt Q96GD4); experiment: ProfilerPro Kinase Selectivity, AURB
T3 construct: purchased Caliper LifeSciences
Description: as §1

[4] = target: T4, EPHA1 (Homo sapiens, UniProt P21709); experiment: ProfilerPro Kinase Selectivity, EPHA1
T4 construct: purchased Caliper LifeSciences
Description: as §1

[5] = target: T5, HIPK2 (Homo sapiens, UniProt Q9H2X6); experiment: ProfilerPro Kinase Selectivity, HIPK2
T5 construct: purchased Caliper LifeSciences
Description: as §1

[6] = target: T6, MINK (Homo sapiens, UniProt Q8N4C8); experiment: ProfilerPro Kinase Selectivity, MINK
T6 construct: purchased Caliper LifeSciences
Description: as §1

[7] = target: T7, MST1 (Homo sapiens, UniProt Q13043); experiment: ProfilerPro Kinase Selectivity, MST1
T7 construct: purchased Caliper LifeSciences
Description: as §1

[8] = target: T8, MELK (Homo sapiens, UniProt Q14680); experiment: ProfilerPro Kinase Selectivity, MELK
T8 construct: purchased Caliper LifeSciences
Description: as §1

[9] = target: T9, MST3 (Homo sapiens, UniProt Q9Y6E0); experiment: ProfilerPro Kinase Selectivity, MST3
T9 construct: purchased Caliper LifeSciences
Description: as §1

[10] = target: T10, CK1G3 (Homo sapiens, UniProt Q9Y6M4); experiment: ProfilerPro Kinase Selectivity, CK1G3
T10 construct: purchased Caliper LifeSciences
Description: as §1

[11] = target: T11, MARK4 (Homo sapiens, UniProt Q96L34); experiment: ProfilerPro Kinase Selectivity, MARK4
T11 construct: purchased Caliper LifeSciences
Description: as §1

[12] = target: T12, PAK4 (Homo sapiens, UniProt O96013); experiment: ProfilerPro Kinase Selectivity, PAK4
T12 construct: purchased Caliper LifeSciences
Description: as §1

[13] = target: T13, HER4 (Homo sapiens, UniProt Q15303); experiment: ProfilerPro Kinase Selectivity, HER4
T13 construct: purchased Caliper LifeSciences
Description: as §1

[14] = target: T14, CDK3 (Homo sapiens, UniProt Q00526); experiment: ProfilerPro Kinase Selectivity, CDK3
T14 construct: purchased Caliper LifeSciences
Description: as §1

[15] = target: T15, PDGFRA (Homo sapiens, UniProt P16234); experiment: ProfilerPro Kinase Selectivity, PDGFRA
T15 construct: purchased Caliper LifeSciences
Description: as §1

[16] = target: T16, ROCK2 (Homo sapiens, UniProt O75116); experiment: ProfilerPro Kinase Selectivity, ROCK2
T16 construct: purchased Caliper LifeSciences
Description: as §1

[17] = target: T17, RAF-1 (Homo sapiens, UniProt P04049); experiment: ProfilerPro Kinase Selectivity, RAF-1
T17 construct: purchased Caliper LifeSciences
Description: as §1

[18] = target: T18, MARK1 (Homo sapiens, UniProt Q9P0L2); experiment: ProfilerPro Kinase Selectivity, MARK1
T18 construct: purchased Caliper LifeSciences
Description: as §1

[19] = target: T19, PRKCG (Homo sapiens, UniProt P05129); experiment: ProfilerPro Kinase Selectivity, PRKCG
T19 construct: purchased Caliper LifeSciences
Description: as §1

[20] = target: T20, CHK2 (Homo sapiens, UniProt O96017); experiment: ProfilerPro Kinase Selectivity, CHK2
T20 construct: purchased Caliper LifeSciences
Description: as §1

[21] = target: T21, PKD2 (Homo sapiens, UniProt Q9BZL6); experiment: ProfilerPro Kinase Selectivity, PKD2
T21 construct: purchased Caliper LifeSciences
Description: as §1

[22] = target: T22, EPHA8 (Homo sapiens, UniProt P29322); experiment: ProfilerPro Kinase Selectivity, EPHA8
T22 construct: purchased Caliper LifeSciences
Description: as §1

[23] = target: T23, PKD3 (Homo sapiens, UniProt O94806); experiment: ProfilerPro Kinase Selectivity, PKD3
T23 construct: purchased Caliper LifeSciences
Description: as §1

[24] = target: T24, HGK (Homo sapiens, UniProt O95819); experiment: ProfilerPro Kinase Selectivity, HGK
T24 construct: purchased Caliper LifeSciences
Description: as §1

[25] = target: T25, GSK3B (Homo sapiens, UniProt P49841); experiment: ProfilerPro Kinase Selectivity, GSK3B
T25 construct: purchased Caliper LifeSciences
Description: as §1

[26] = target: T26, YES (Homo sapiens, UniProt P07947); experiment: ProfilerPro Kinase Selectivity, YES
T26 construct: purchased Caliper LifeSciences
Description: as §1

[27] = target: T27, ARG (Homo sapiens, UniProt P42684); experiment: ProfilerPro Kinase Selectivity, ARG
T27 construct: purchased Caliper LifeSciences
Description: as §1

[28] = target: T28, P70S6K (Homo sapiens, UniProt P23443); experiment: ProfilerPro Kinase Selectivity, P70S6K
T28 construct: purchased Caliper LifeSciences
Description: as §1

[29] = target: T29, SRC (Homo sapiens, UniProt P12931); experiment: ProfilerPro Kinase Selectivity, SRC
T29 construct: purchased Caliper LifeSciences
Description: as §1

[30] = target: T30, ZIPK (Homo sapiens, UniProt O43293); experiment: ProfilerPro Kinase Selectivity, ZIPK
T30 construct: purchased Caliper LifeSciences
Description: as §1

[31] = target: T31, PRKCH (Homo sapiens, UniProt P24723); experiment: ProfilerPro Kinase Selectivity, PRKCH
T31 construct: purchased Caliper LifeSciences
Description: as §1

[32] = target: T32, FLT-3 D835Y (Homo sapiens, UniProt P36888, D835Y); experiment: ProfilerPro Kinase Selectivity, FLT-3 D835Y
T32 construct: purchased Caliper LifeSciences
Description: as §1

[33] = target: T33, PASK (Homo sapiens, UniProt Q96RG2); experiment: ProfilerPro Kinase Selectivity, PASK
T33 construct: purchased Caliper LifeSciences
Description: as §1

[34] = target: T34, RSK1 (Homo sapiens, UniProt Q15418); experiment: ProfilerPro Kinase Selectivity, RSK1
T34 construct: purchased Caliper LifeSciences
Description: as §1

[35] = target: T35, FGFR1 V561M (Homo sapiens, UniProt P11362, V561M); experiment: ProfilerPro Kinase Selectivity, FGFR1 V561M
T35 construct: purchased Caliper LifeSciences
Description: as §1

[36] = target: T36, P38G (Homo sapiens, UniProt P53778); experiment: ProfilerPro Kinase Selectivity, P38G
T36 construct: purchased Caliper LifeSciences
Description: as §1

[37] = target: T37, CASEIN K1G2 (Homo sapiens, UniProt P78368); experiment: ProfilerPro Kinase Selectivity, CASEIN K1G2
T37 construct: purchased Caliper LifeSciences
Description: as §1

[38] = target: T38, NUAK1 (Homo sapiens, UniProt O60285); experiment: ProfilerPro Kinase Selectivity, NUAK1
T38 construct: purchased Caliper LifeSciences
Description: as §1

[39] = target: T39, PYK2 (Homo sapiens, UniProt Q14289); experiment: ProfilerPro Kinase Selectivity, PYK2
T39 construct: purchased Caliper LifeSciences
Description: as §1

T9 sequence (Q9Y6E0 whole entry, species assumed): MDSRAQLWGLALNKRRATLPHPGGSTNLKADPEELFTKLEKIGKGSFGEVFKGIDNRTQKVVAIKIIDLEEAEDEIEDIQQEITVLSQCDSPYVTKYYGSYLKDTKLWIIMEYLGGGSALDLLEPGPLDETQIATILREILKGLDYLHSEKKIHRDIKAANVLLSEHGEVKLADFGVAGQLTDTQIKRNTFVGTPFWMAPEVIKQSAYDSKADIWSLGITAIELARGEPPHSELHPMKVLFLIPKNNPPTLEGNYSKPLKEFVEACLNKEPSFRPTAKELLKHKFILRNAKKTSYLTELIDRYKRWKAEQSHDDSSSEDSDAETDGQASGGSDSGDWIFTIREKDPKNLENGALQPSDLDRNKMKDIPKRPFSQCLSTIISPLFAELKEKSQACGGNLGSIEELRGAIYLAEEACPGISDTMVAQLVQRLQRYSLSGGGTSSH
T10 sequence (Q9Y6M4 whole entry): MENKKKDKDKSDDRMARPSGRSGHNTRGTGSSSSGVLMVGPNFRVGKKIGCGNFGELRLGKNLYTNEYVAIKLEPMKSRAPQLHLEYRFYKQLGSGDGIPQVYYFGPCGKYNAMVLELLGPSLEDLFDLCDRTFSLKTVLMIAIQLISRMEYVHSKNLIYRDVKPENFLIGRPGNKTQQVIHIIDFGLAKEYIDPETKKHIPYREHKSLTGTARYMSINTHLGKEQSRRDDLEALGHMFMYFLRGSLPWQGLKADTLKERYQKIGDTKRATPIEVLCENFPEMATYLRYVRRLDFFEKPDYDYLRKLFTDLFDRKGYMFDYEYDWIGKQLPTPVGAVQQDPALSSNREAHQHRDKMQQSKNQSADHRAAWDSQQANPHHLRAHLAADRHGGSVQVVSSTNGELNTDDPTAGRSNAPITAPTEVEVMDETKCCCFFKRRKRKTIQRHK
T16 sequence (O75116 whole entry, species assumed): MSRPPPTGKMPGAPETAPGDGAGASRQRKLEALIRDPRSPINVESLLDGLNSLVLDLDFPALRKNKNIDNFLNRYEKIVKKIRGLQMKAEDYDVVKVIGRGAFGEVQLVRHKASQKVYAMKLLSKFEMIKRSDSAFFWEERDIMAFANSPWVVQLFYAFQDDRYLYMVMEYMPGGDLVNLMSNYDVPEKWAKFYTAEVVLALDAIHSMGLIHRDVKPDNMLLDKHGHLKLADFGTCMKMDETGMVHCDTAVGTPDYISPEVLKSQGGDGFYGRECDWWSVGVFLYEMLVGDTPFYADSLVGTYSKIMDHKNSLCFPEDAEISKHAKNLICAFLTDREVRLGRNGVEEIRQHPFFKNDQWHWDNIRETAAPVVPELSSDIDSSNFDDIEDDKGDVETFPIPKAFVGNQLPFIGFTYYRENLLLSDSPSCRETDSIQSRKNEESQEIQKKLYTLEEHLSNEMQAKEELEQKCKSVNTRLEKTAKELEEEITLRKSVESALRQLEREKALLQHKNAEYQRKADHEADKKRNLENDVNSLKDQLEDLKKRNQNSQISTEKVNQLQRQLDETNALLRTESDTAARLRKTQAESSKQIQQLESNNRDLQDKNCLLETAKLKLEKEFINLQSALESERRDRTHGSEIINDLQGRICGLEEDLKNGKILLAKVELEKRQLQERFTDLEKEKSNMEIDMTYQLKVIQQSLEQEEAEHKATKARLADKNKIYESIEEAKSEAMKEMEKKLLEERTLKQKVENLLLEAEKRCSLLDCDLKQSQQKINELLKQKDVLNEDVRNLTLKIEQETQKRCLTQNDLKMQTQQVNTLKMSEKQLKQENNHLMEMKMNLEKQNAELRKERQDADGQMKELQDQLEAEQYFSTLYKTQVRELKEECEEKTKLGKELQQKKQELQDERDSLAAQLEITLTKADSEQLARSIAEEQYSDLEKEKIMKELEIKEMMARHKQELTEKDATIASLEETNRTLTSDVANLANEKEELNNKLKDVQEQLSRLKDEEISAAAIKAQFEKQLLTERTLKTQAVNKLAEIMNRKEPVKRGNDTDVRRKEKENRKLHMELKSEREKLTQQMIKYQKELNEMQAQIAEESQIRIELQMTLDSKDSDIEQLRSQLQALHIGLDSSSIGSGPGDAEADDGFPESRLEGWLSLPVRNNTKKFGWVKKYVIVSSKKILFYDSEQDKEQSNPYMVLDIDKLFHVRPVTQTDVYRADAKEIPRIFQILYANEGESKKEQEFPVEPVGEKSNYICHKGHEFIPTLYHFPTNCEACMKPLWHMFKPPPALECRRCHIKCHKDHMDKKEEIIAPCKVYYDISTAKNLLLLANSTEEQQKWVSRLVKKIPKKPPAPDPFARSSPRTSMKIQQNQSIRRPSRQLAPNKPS
T25 sequence (P49841 whole entry, species assumed): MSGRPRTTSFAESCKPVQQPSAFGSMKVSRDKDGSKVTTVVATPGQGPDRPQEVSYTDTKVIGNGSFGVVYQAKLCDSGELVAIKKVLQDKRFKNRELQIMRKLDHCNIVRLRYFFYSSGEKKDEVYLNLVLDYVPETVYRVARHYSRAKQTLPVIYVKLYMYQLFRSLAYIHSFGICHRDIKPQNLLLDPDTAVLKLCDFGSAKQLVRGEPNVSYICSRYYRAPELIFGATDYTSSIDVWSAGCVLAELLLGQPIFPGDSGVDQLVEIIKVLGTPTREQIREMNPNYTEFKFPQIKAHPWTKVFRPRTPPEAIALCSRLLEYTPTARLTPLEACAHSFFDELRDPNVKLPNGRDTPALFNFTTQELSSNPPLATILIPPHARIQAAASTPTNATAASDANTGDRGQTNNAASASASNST
T6 sequence (Q8N4C8 whole entry): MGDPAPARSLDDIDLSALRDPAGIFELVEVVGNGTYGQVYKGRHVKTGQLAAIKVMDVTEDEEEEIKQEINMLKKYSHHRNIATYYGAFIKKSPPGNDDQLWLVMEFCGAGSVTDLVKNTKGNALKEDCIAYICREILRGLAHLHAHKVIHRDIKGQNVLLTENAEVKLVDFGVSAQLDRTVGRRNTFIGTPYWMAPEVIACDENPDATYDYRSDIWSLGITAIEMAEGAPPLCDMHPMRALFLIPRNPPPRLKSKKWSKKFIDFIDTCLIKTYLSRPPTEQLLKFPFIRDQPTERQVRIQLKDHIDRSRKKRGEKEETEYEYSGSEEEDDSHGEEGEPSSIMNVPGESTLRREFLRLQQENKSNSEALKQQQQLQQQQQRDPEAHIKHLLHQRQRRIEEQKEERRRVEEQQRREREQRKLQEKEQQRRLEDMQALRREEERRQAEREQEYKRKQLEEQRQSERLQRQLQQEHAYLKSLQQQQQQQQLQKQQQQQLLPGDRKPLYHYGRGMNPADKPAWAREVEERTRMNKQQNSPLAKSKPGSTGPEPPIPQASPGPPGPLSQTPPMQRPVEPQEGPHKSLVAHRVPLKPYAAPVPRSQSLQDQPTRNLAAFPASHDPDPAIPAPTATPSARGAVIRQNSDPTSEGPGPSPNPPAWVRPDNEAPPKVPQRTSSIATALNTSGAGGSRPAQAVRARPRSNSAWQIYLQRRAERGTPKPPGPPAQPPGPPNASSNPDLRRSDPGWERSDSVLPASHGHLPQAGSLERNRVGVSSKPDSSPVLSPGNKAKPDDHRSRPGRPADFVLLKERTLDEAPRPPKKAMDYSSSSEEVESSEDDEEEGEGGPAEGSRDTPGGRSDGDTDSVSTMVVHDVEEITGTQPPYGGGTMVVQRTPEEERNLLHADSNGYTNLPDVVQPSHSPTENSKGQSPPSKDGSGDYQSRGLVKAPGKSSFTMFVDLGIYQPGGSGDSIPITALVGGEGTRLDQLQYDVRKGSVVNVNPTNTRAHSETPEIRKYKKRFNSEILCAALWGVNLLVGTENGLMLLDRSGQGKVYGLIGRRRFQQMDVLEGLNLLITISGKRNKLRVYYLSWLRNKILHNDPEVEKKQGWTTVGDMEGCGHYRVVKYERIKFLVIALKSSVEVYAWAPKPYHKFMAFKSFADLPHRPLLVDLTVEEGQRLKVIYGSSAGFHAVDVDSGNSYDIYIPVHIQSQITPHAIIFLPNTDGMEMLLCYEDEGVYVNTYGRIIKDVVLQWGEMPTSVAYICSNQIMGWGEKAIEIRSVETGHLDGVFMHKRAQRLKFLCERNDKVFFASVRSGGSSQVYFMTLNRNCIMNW
T7 sequence (Q13043 whole entry): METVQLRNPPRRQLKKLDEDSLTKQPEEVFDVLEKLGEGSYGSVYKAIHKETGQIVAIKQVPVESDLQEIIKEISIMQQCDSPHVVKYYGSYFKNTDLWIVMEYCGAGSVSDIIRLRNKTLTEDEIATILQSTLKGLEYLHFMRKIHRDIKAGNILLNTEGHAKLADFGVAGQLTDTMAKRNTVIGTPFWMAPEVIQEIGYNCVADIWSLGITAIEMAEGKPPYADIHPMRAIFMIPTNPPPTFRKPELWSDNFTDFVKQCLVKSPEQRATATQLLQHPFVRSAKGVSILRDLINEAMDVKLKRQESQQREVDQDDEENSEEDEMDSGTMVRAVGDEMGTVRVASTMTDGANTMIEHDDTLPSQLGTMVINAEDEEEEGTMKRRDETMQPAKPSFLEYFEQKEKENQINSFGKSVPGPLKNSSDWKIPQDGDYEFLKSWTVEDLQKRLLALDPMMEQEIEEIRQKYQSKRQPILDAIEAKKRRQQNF
T37 sequence (P78368 whole entry): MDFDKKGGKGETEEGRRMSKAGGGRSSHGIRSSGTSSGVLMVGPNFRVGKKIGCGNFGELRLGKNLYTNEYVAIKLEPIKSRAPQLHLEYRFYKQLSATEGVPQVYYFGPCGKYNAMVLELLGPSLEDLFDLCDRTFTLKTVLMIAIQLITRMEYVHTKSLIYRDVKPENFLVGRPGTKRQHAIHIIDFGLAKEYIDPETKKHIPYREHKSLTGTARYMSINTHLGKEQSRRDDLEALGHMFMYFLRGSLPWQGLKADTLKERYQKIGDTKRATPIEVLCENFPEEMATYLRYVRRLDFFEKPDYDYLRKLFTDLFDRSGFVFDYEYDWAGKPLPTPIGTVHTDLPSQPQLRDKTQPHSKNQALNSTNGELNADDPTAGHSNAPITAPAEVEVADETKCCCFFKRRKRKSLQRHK

Row | Structure (SMILES) | inhibition at 10 µM [1] [%] | inhibition at 10 µM [2] [%] | inhibition at 10 µM [3] [%] | inhibition at 10 µM [4] [%] | inhibition at 10 µM [5] [%] | inhibition at 10 µM [6] [%] | inhibition at 10 µM [7] [%] | inhibition at 10 µM [8] [%] | inhibition at 10 µM [9] [%] | inhibition at 10 µM [10] [%] | inhibition at 10 µM [11] [%] | inhibition at 10 µM [12] [%] | inhibition at 10 µM [13] [%] | inhibition at 10 µM [14] [%] | inhibition at 10 µM [15] [%] | inhibition at 10 µM [16] [%] | inhibition at 10 µM [17] [%] | inhibition at 10 µM [18] [%] | inhibition at 10 µM [19] [%] | inhibition at 10 µM [20] [%] | further results
1 | CSc1sc(-c2cc[nH]n2)c2c1C(=O)CCC2 [Example 1, 3-(Methylsulfanyl)-1-(1H-pyrazol-3-yl)-6,7-dihydro-2-benzothiophen-4(5H)-one] | 4.6 | 12.3 | 57.7 | 2.8 | 25.2 | 24.8 | 7.2 | 11 | -2.2 | 1.1 | -9.4 | 6.1 | -2.4 | 21.4 | 15.7 | -3.5 | 3.1 | -2.9 | 10 | 48.7 | inhibition at 10 µM [21]: -2.5%; inhibition at 10 µM [22]: -0.2%; inhibition at 10 µM [23]: 12%; inhibition at 10 µM [24]: 13.8%; inhibition at 10 µM [25]: 5.4%; inhibition at 10 µM [26]: -4.4%; inhibition at 10 µM [27]: -6%; inhibition at 10 µM [28]: 5.7%; inhibition at 10 µM [29]: 7.3%; inhibition at 10 µM [30]: 8.1%; inhibition at 10 µM [31]: 1.1%; inhibition at 10 µM [32]: 39.3%; inhibition at 10 µM [33]: 2.6%; inhibition at 10 µM [34]: 9.5%; inhibition at 10 µM [35]: 4.4%; inhibition at 10 µM [36]: 23.3%; inhibition at 10 µM [37]: 6.9%; inhibition at 10 µM [38]: 44.2%; inhibition at 10 µM [39]: 4.2%
2 | CC1(C)CC(=O)c2c(SC3CCCC3)sc(-c3cc[nH]n3)c2C1 [Example 7, 3-(Cyclopentylsulfanyl)-6,6-dimethyl-1-(1H-pyrazol-3-yl)-6,7-dihydro-2-benzothiophen-4(5H)-one] | 4.6 | -2.3 | -3.1 | -0.2 | 5 | -1.5 | -3 | 7.3 | -10.9 | 7.7 | 11.6 | -8.9 | -2.2 | 2.5 | -0.7 | 0.9 | -0.2 | -0.6 | 2.3 | 3.7 | inhibition at 10 µM [21]: -4.2%; inhibition at 10 µM [22]: -3.8%; inhibition at 10 µM [23]: 2.6%; inhibition at 10 µM [24]: 3.9%; inhibition at 10 µM [25]: 0.5%; inhibition at 10 µM [26]: -11.1%; inhibition at 10 µM [27]: 8.6%; inhibition at 10 µM [28]: -4.8%; inhibition at 10 µM [29]: 1.5%; inhibition at 10 µM [30]: 1%; inhibition at 10 µM [31]: 0.8%; inhibition at 10 µM [32]: 2.7%; inhibition at 10 µM [33]: -10.8%; inhibition at 10 µM [34]: 3.3%; inhibition at 10 µM [35]: 7.9%; inhibition at 10 µM [36]: -0.2%; inhibition at 10 µM [37]: 8.6%; inhibition at 10 µM [38]: -4.2%; inhibition at 10 µM [39]: -0.6%
